Measurements: patent US20230045421A1 (priority 2018, published 2023)
Like-named read-outs stand apart in the source and are kept apart here.

Tested on: HBV rcDNA
Assay: HepDE19 assay with bDNA quantitation of HBV rcDNA
Type: cell-based, hepatitis B virus
How it was run: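 HepDE19 cells (HepG2-derived, Tet-regulated HBV replication) were deprived of tetracycline and then exposed to compounds for 7 days at 37 °C in 0.5% DMSO, 8-point titration from 25 μM. rcDNA was quantified by bDNA and EC50/EC90 came from 4-parameter fits. CC50 was measured by CellTiter-Glo ATP content on replicate plates after 4 days.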

[1] = Hepatitis B virus, HepDE19, HepDE19 assay, inhibition of formation of rcDNA, read-out: DE-19bDNA EC50
[2] = HepDE19 assay, inhibition of formation of relaxed circular DNA (rcDNA), bDNA quantitation, read-out: DE-19bDNA EC50
[3] = HepDE19 assay, inhibition of formation of rcDNA, read-out: DE-19bDNA EC50
[4] = read-out: DE-19bDNA EC50, HepDE19 assay, inhibition of formation of relaxed circular DNA (rcDNA), bDNA quantitation

## COc1ncc(C(C)N(CCNCC(F)(F)F)C(=O)Nc2ccc(F)c(Cl)c2)c2ccccc12 (racemic) [Compound 158, 3-(3-Chloro-4-fluorophenyl)-1-(1-(1-methoxyisoquinolin-4-yl)ethyl)-1-(2-((2,2,2-trifluoroethyl)amino)ethyl)urea]
[1]
  EC50: 2.7 µM

## CC(c1c[nH]c(=O)c2cc(F)c(F)cc12)N(C)C(=O)N[C@@H](C)c1ccccc1 (single isomer, unassigned) [Compound 475]
Hepatitis B virus, HepDE19, read-out: DE-19bDNA EC50 (μM), HepDE19 assay, inhibition of formation of relaxed circular DNA (rcDNA), bDNA quantitation
  EC50: 6.1 µM

## CC(c1c[nH]c(=O)c2ccccc12)N(CC1COC(C)(C)OC1)C(=O)Nc1ccc(F)cc1 (single isomer, unassigned) [Compound 274, 3-(4-Fluorophenyl)-1-((2,2-dimethyl-1,3-dioxan-5-yl)methyl)-1-(1-(1-oxo-1,2-dihydroisoquinolin-4-yl)ethyl)urea]
[1]
  EC50: 1.8 µM

## COCCN(C(=O)Nc1ccc(F)c(Cl)c1)C(C)c1c[nH]c(=O)c2ccccc12 (single isomer, unassigned) [Compound 66, 3-(3-Chloro-4-fluorophenyl)-1-(2-methoxyethyl)-1-(1-(1-oxo-1,2-dihydroisoquinolin-4-yl)ethyl)urea]
read-out: DE-19bDNA EC50, HepDE19 assay, inhibition of formation of rcDNA
  EC50: 0.09 µM

## CCN(C(=O)Nc1ccc(F)c(Cl)c1)C(C)c1c[nH]c(=O)c2cc(F)c(F)cc12 (single isomer, unassigned) [Compound 406, 3-(3-Chloro-4-fluorophenyl)-1-(1-(6,7-difluoro-1-oxo-1,2-dihydroisoquinolin-4-yl)ethyl)-1-ethylurea]
[2]
  EC50: 2.1 µM

## CC(c1cn(Cc2nc[nH]n2)c(=O)c2ccccc12)N(C)C(=O)Nc1ccc(F)c(Cl)c1 (single isomer, unassigned) [Compound 270, 1-(1-(2-((1H-1,2,4-Triazol-3-yl)methyl)-1-oxo-1,2-dihydroisoquinolin-4-yl)ethyl)-3-(3-chloro-4-fluorophenyl)-1-methylurea]
[3]
  EC50: 22 µM

## COc1ncc(C(C)N(C(=O)Nc2ccc(F)c(Cl)c2)C2CC2)c2ccccc12 (single isomer, unassigned) [Compound 56, 3-(3-Chloro-4-fluorophenyl)-1-cyclopropyl-1-(1-(1-methoxyisoquinolin-4-yl)ethyl)urea]
[3]
  EC50: 13 µM

## CC(c1c[nH]c(=O)c2ccccc12)N(CC1CCN(S(C)(=O)=O)CC1)C(=O)Nc1ccc(F)c(Cl)c1 (single isomer, unassigned) [Compound 203, 3-(3-Chloro-4-fluorophenyl)-1-((1-(methylsulfonyl)piperidin-4-yl)methyl)-1-(1-(1-oxo-1,2-dihydroisoquinolin-4-yl)ethyl)urea]
[3]
  EC50: 10.5 µM

## CC(=O)N1CCC(CN(C(=O)Nc2ccc(F)c(Cl)c2)C(C)c2c[nH]c(=O)c3ccccc23)CC1 (single isomer, unassigned) [Compound 201, 1-((1-Acetylpiperidin-4-yl)methyl)-3-(3-chloro-4-fluorophenyl)-1-(1-(1-oxo-1,2-dihydroisoquinolin-4-yl)ethyl)urea]
[3]
  EC50: 0.22 µM

## CC(c1c[nH]c(=O)c2cc(F)c(F)cc12)N(C)C(=O)NCc1ccc(F)cc1 (single isomer, unassigned) [Compound 478, 1-(1-(6,7-Difluoro-1-oxo-1,2-dihydroisoquinolin-4-yl)ethyl)-3-(4-fluorobenzyl)-1-methylurea]
Hepatitis B virus, HepDE19, HepDE19 assay, inhibition of formation of relaxed circular DNA (rcDNA), bDNA quantitation, read-out: DE-19bDNA EC50
  EC50: 1 µM

## CC(c1c[nH]c(=O)c2c(F)cccc12)N(CCCO)C(=O)Nc1ccc(F)c(Cl)c1 (single isomer, unassigned) [Compound 367, 3-(3-Chloro-4-fluorophenyl)-1-(1-(8-fluoro-1-oxo-1,2-dihydroisoquinolin-4-yl)ethyl)-1-(3-hydroxypropyl)urea]
[2]
  EC50: 0.008 µM

## CC(c1c[nH]c(=O)c2ccccc12)N(CCCN)C(=O)Nc1ccc(F)c(Cl)c1 (single isomer, unassigned) [Compound 164, 1-(3-Aminopropyl)-3-(3-chloro-4-fluorophenyl)-1-(1-(1-oxo-1,2-dihydroisoquinolin-4-yl)ethyl)urea]
[1]
  EC50: 12 µM

## C[C@H](c1c[nH]c(=O)c2ccccc12)N(CC(F)F)C(=O)Nc1ccc(F)c(Cl)c1 [Compound 96, (R)-3-(3-Chloro-4-fluorophenyl)-1-(2,2-difluoroethyl)-1-(1-(1-oxo-1,2-dihydroisoquinolin-4-yl)ethyl)urea]
[1]
  EC50: 0.22 µM

## CCN(C(=O)Nc1ccc(F)c(Cl)c1)C(c1c[nH]c(=O)c2ccccc12)C(F)(F)F (single isomer, unassigned) [Compound 74, 3-(3-chloro-4-fluorophenyl)-1-ethyl-1-(2,2,2-trifluoro-1-(1-oxo-1,2-dihydroisoquinolin-4-yl)ethyl)urea]
[3]
  EC50: 15 µM

## CC(c1c[nH]c(=O)c2c(F)cccc12)N(C)C(=O)Nc1ccc(F)c(Cl)c1 (single isomer, unassigned) [Compound 357, 3-(3-Chloro-4-fluorophenyl)-1-(1-(8-fluoro-1-oxo-1,2-dihydroisoquinolin-4-yl)ethyl)-1-methylurea]
[2]
  EC50: 0.04 µM

## COc1ncc(C(CCO)NC(=O)Nc2ccc(F)c(Cl)c2)c2ccccc12 (single isomer, unassigned) [Compound 78, 1-(3-Chloro-4-fluorophenyl)-3-(3-hydroxy-1-(1-methoxyisoquinolin-4-yl)propyl)urea]
[3]
  EC50: 24 µM

## CCNc1ncc(C(C)N(C)C(=O)Nc2ccc(F)c(Cl)c2)c2ccccc12 (single isomer, unassigned) [Compound 240, 3-(3-Chloro-4-fluorophenyl)-1-(1-(1-(ethylamino)isoquinolin-4-yl)ethyl)-1-methylurea]
[3]
  EC50: 11.5 µM

## CC(c1c[nH]c(=O)c2cc(F)ccc12)N(C)C(=O)Nc1ccc(F)c(Cl)c1 (single isomer, unassigned) [Compound 264, 3-(3-Chloro-4-fluorophenyl)-1-(1-(7-fluoro-1-oxo-1,2-dihydroisoquinolin-4-yl)ethyl)-1-methylurea]
[3]
  EC50: 0.019 µM

## CC(c1cnc(C(=O)N(C)C)c2ccccc12)N(C)C(=O)Nc1ccc(F)c(Cl)c1 (single isomer, unassigned) [Compound 318, 4-(1-(3-(3-Chloro-4-fluorophenyl)-1-methylureido)ethyl)-N,N-dimethylisoquinoline-1-carboxamide]
[2]
  EC50: 24 µM

## CC(c1c[nH]c(=O)c2ccccc12)N(CCNCC(F)F)C(=O)Nc1ccc(F)c(Cl)c1 (single isomer, unassigned) [Compound 199, 3-(3-Chloro-4-fluorophenyl)-1-(2-((2,2-difluoroethyl)amino)ethyl)-1-(1-(1-oxo-1,2-dihydroisoquinolin-4-yl)ethyl)urea]
[3]
  EC50: 2.2 µM

## CC(c1c[nH]c(=O)c2ccccc12)N(CCO)C(=O)Nc1ccc(F)c(Cl)c1 (single isomer, unassigned) [Compound 197, 3-(3-Chloro-4-fluorophenyl)-1-(2-hydroxyethyl)-1-(1-(1-oxo-1,2-dihydroisoquinolin-4-yl)ethyl)urea]
[3]
  EC50: 0.08 µM

## CN(C(=O)Nc1ccc(F)c(Cl)c1)C(CO)c1c[nH]c(=O)c2ccccc12 (single isomer, unassigned) [Compound 379, 3-(3-Chloro-4-fluorophenyl)-1-(2-hydroxy-1-(1-oxo-1,2-dihydroisoquinolin-4-yl)ethyl)-1-methylurea]
[4]
  EC50: 0.14 µM

## CCN(C(=O)Nc1ccccc1)C(C)c1c[nH]c(=O)c2c(F)c(F)ccc12 (single isomer, unassigned) [Compound 467, 1-(1-(7,8-Difluoro-1-oxo-1,2-dihydroisoquinolin-4-yl)ethyl)-1-ethyl-3-phenylurea]
[4]
  EC50: 0.066 µM
